Measurements published in US10053454B2 (Bristol-Myers Squibb Company, priority 2013, dated 2018).

Biological target: BRD4 (Homo sapiens, UniProt O60885)
Test: Time Resolved Fluorescence Resonance Energy Transfer (TR-FRET) binding assay
Conditions: one of the FRET assays described (BRD4 construct not given)

SMILES	IC50 [nM]
Cc1noc(C)c1-c1cc(C(N)=O)c2[nH]c3cc(C(=O)N4CCCCC4)ccc3c2c1 [Example 1, 3-(3,5-dimethyl-4-isoxazolyl)-7-(1-piperidinylcarbonyl)-9H-carbazole-1-carboxamide]	< 500
Cc1noc(C)c1-c1cc(C(N)=O)c2c(c1)c1ccc(C(=O)N3C[C@@H](C)O[C@@H](C)C3)cc1n2CC1CC1 [Example 2, 9-(cyclopropylmethyl)-3-(3,5-dimethyl-4-isoxazolyl)-7-((cis-2,6-dimethyl-4-morpholinyl)carbonyl)-9H-carbazole-1-carboxamide]	< 50
Cc1noc(C)c1-c1cc(C(N)=O)c2[nH]c3cc(C(=O)N4CCOCC4)ccc3c2c1 [Example 3, 3-(3,5-dimethyl-4-isoxazolyl)-7-(4-morpholinylcarbonyl)-9H-carbazole-1-carboxamide]	< 500
Cc1noc(C)c1-c1cc(C(N)=O)c2c(c1)c1ccc(C(=O)N3CCOCC3)cc1n2CC1CC1 [Example 4, 9-(cyclopropylmethyl)-3-(3,5-dimethyl-4-isoxazolyl)-7-(4-morpholinylcarbonyl)-9H-carbazole-1-carboxamide]	< 50
Cc1noc(C)c1-c1cc(C(N)=O)c2c(c1)c1ccc(C(=O)N3CCOCC3)cc1n2S(C)(=O)=O [Example 5, 3-(3,5-dimethyl-4-isoxazolyl)-9-(methylsulfonyl)-7-(4-morpholinylcarbonyl)-9H-carbazole-1-carboxamide]	< 50
Cc1noc(C)c1-c1cc(C(N)=O)c2c(c1)c1ccc(C(=O)N3CCC(C#N)CC3)cc1n2S(C)(=O)=O [Example 6, 7-((4-cyano-1-piperidinyl)carbonyl)-3-(3,5-dimethyl-4-isoxazolyl)-9-(methylsulfonyl)-9H-carbazole-1-carboxamide]	< 50
Cc1noc(C)c1-c1cc(C(N)=O)c2c(c1)c1ccc(C(=O)N3CC(F)C3)cc1n2S(C)(=O)=O [Example 7, 3-(3,5-dimethyl-4-isoxazolyl)-7-((3-fluoro-1-azetidinyl)carbonyl)-9-(methylsulfonyl)-9H-carbazole-1-carboxamide]	< 50
Cc1noc(C)c1-c1cc(C(N)=O)c2c(c1)c1ccc(C(=O)N3CCC(F)CC3)cc1n2S(C)(=O)=O [Example 8, 3-(3,5-dimethyl-4-isoxazolyl)-7-((4-fluoro-1-piperidinyl)carbonyl)-9-(methylsulfonyl)-9H-carbazole-1-carboxamide]	< 500
Cc1noc(C)c1-c1cc(C(N)=O)c2c(c1)c1ccc(C(=O)N3CCC(F)(F)CC3)cc1n2S(C)(=O)=O [Example 9, 7-((4,4-difluoro-1-piperidinyl)carbonyl)-3-(3,5-dimethyl-4-isoxazolyl)-9-(methylsulfonyl)-9H-carbazole-1-carboxamide]	< 50
Cc1noc(C)c1-c1cc(C(N)=O)c2c(c1)c1ccc(C(=O)N3CCCC(N(C)C)C3)cc1n2S(C)(=O)=O (stereo not drawn) [Example 10, 7-((3-(dimethylamino)-1-piperidinyl)carbonyl)-3-(3,5-dimethyl-4-isoxazolyl)-9-(methylsulfonyl)-9H-carbazole-1-carboxamide]	< 50
Cc1noc(C)c1-c1cc(C(N)=O)c2c(c1)c1ccc(C(=O)N3CC(F)(F)C3)cc1n2S(C)(=O)=O [Example 11, 7-((3,3-difluoro-1-azetidinyl)carbonyl)-3-(3,5-dimethyl-4-isoxazolyl)-9-(methylsulfonyl)-9H-carbazole-1-carboxamide]	< 50
Cc1noc(C)c1-c1cc(C(N)=O)c2c(c1)c1ccc(C(=O)N(C)C)cc1n2S(C)(=O)=O [Example 12, 3-(3,5-dimethyl-4-isoxazolyl)-N7,N7-dimethyl-9-(methylsulfonyl)-9H-carbazole-1,7-dicarboxamide]	< 50
Cc1noc(C)c1-c1cc(C(N)=O)c2c(c1)c1ccc(C(=O)N3CCCC(F)C3)cc1n2S(C)(=O)=O (stereo not drawn) [Example 13, 3-(3,5-dimethyl-4-isoxazolyl)-7-((3-fluoro-1-piperidinyl)carbonyl)-9-(methylsulfonyl)-9H-carbazole-1-carboxamide]	< 50
COC1CN(C(=O)c2ccc3c4cc(-c5c(C)noc5C)cc(C(N)=O)c4n(S(C)(=O)=O)c3c2)C1 [Example 14, 3-(3,5-dimethyl-4-isoxazolyl)-7-((3-methoxy-1-azetidinyl)carbonyl)-9-(methylsulfonyl)-9H-carbazole-1-carboxamide]	< 50
Cc1noc(C)c1-c1cc(C(N)=O)c2c(c1)c1ccc(C(=O)N3CCS(=O)(=O)CC3)cc1n2S(C)(=O)=O [Example 15, 3-(3,5-dimethyl-4-isoxazolyl)-7-((1,1-dioxido-4-thiomorpholinyl)carbonyl)-9-(methylsulfonyl)-9H-carbazole-1-carboxamide]	< 5000
Cc1noc(C)c1-c1cc(C(N)=O)c2c(c1)c1ccc(C(=O)N3C(C)(C)CC(O)CC3(C)C)cc1n2S(C)(=O)=O [Example 16, 3-(3,5-dimethyl-4-isoxazolyl)-7-((4-hydroxy-2,2,6,6-tetramethyl-1-piperidinyl)carbonyl)-9-(methylsulfonyl)-9H-carbazole-1-carboxamide]	< 50
Cc1noc(C)c1-c1cc(C(N)=O)c2c(c1)c1ccc(C(=O)N3CCCOCC3)cc1n2S(C)(=O)=O [Example 17, 3-(3,5-dimethyl-4-isoxazolyl)-9-(methylsulfonyl)-7-(1,4-oxazepan-4-ylcarbonyl)-9H-carbazole-1-carboxamide]	< 50

SMILES	IC50 [nM]
Cc1noc(C)c1-c1cc(C(N)=O)c2c(c1)c1ccc(C(=O)N3CCC(N(C)C)C3)cc1n2S(C)(=O)=O (stereo not drawn) [Example 18, 7-((3-(dimethylamino)-1-pyrrolidinyl)carbonyl)-3-(3,5-dimethyl-4-isoxazolyl)-9-(methylsulfonyl)-9H-carbazole-1-carboxamide]	< 50
Cc1noc(C)c1-c1cc(C(N)=O)c2c(c1)c1ccc(C(=O)N3CNC(=O)C3)cc1n2S(C)(=O)=O [Example 19, 3-(3,5-dimethyl-4-isoxazolyl)-9-(methylsulfonyl)-7-((4-oxo-1-imidazolidinyl)carbonyl)-9H-carbazole-1-carboxamide]	< 500
Cc1noc(C)c1-c1cc(C(N)=O)c2c(c1)c1ccc(C(=O)N3CCC(C#N)CC3)cc1n2S(=O)(=O)C1CC1 [Example 20, 7-((4-cyano-1-piperidinyl)carbonyl)-9-(cyclopropylsulfonyl)-3-(3,5-dimethyl-4-isoxazolyl)-9H-carbazole-1-carboxamide]	< 50
Cc1noc(C)c1-c1cc(C(N)=O)c2c(c1)c1ccc(C(=O)N3CC(F)C3)cc1n2S(=O)(=O)C1CC1 [Example 21, 9-(cyclopropylsulfonyl)-3-(3,5-dimethyl-4-isoxazolyl)-7-((3-fluoro-1-azetidinyl)carbonyl)-9H-carbazole-1-carboxamide]	< 50
Cc1noc(C)c1-c1cc(C(N)=O)c2c(c1)c1ccc(C(=O)N3CCCC(F)C3)cc1n2S(=O)(=O)C1CC1 (stereo not drawn) [Example 23, 9-(cyclopropylsulfonyl)-3-(3,5-dimethyl-4-isoxazolyl)-7-((3-fluoro-1-piperidinyl)carbonyl)-9H-carbazole-1-carboxamide]	< 50
Cc1noc(C)c1-c1cc(C(N)=O)c2c(c1)c1ccc(C(=O)N3CC(F)(F)C3)cc1n2S(=O)(=O)C1CC1 [Example 24, 9-(cyclopropylsulfonyl)-7-((3,3-difluoro-1-azetidinyl)carbonyl)-3-(3,5-dimethyl-4-isoxazolyl)-9H-carbazole-1-carboxamide]	< 50
Cc1noc(C)c1-c1cc(C(N)=O)c2c(c1)c1ccc(C(=O)N3CCCOCC3)cc1n2S(=O)(=O)C1CC1 [Example 25, 9-(cyclopropylsulfonyl)-3-(3,5-dimethyl-4-isoxazolyl)-7-(1,4-oxazepan-4-ylcarbonyl)-9H-carbazole-1-carboxamide]	< 50
Cc1noc(C)c1-c1cc(C(N)=O)c2c(c1)c1ccc(C(=O)N3CCC(F)(F)CC3)cc1n2S(=O)(=O)C1CC1 [Example 26, 9-(cyclopropylsulfonyl)-7-((4,4-difluoro-1-piperidinyl)carbonyl)-3-(3,5-dimethyl-4-isoxazolyl)-9H-carbazole-1-carboxamide]	< 50
Cc1noc(C)c1-c1cc(C(N)=O)c2c(c1)c1ccc(NC(=O)OC(C)(C)C)cc1n2CC1CC1 [Example 27, tert-butyl(8-carbamoyl-9-(cyclopropylmethyl)-6-(3,5-dimethyl-4-isoxazolyl)-9H-carbazol-2-yl)carbamate]	< 500
Cc1noc(C)c1-c1cc(C(N)=O)c2c(c1)c1ccc(N)cc1n2CC1CC1 [Example 28, 7-amino-9-(cyclopropylmethyl)-3-(3,5-dimethyl-4-isoxazolyl)-9H-carbazole-1-carboxamide]	< 500
CC(=O)Nc1ccc2c3cc(-c4c(C)noc4C)cc(C(N)=O)c3n(CC3CC3)c2c1 [Example 29, 7-acetamido-9-(cyclopropylmethyl)-3-(3,5-dimethyl-4-isoxazolyl)-9H-carbazole-1-carboxamide]	< 500
Cc1noc(C)c1-c1cc(C(N)=O)c2c(c1)c1ccc(N(c3nccs3)c3nccs3)cc1n2CC1CC1 [Example 30, 9-(cyclopropylmethyl)-3-(3,5-dimethyl-4-isoxazolyl)-7-(di-1,3-thiazol-2-ylamino)-9H-carbazole-1-carboxamide]	< 500
CCNC(=O)Nc1ccc2c3cc(-c4c(C)noc4C)cc(C(N)=O)c3n(CC3CC3)c2c1 [Example 31, 9-(cyclopropylmethyl)-3-(3,5-dimethyl-4-isoxazolyl)-7-((ethylcarbamoyl)amino)-9H-carbazole-1-carboxamide]	< 500
CCOC(=O)Nc1ccc2c3cc(-c4c(C)noc4C)cc(C(N)=O)c3n(CC3CC3)c2c1 [Example 32, Ethyl(8-carbamoyl-9-(cyclopropylmethyl)-6-(3,5-dimethyl-4-isoxazolyl)-9H-carbazol-2-yl)carbamate]	< 5000
Cc1noc(C)c1-c1cc(C(N)=O)c2c(c1)c1ccc(Br)cc1n2CC1CC1 [Example 34, 7-bromo-9-(cyclopropylmethyl)-3-(3,5-dimethyl-4-isoxazolyl)-9H-carbazole-1-carboxamide]	< 500
Cc1noc(C)c1-c1cc(C(N)=O)c2c(c1)c1cc(Br)c(Br)cc1n2CC1CC1 [Example 35, 6,7-dibromo-9-(cyclopropylmethyl)-3-(3,5-dimethyl-4-isoxazolyl)-9H-carbazole-1-carboxamide]	< 500
